Data set [1] concerns EBOV. The note with it: mouse, in vivo; cited from earlier work.
For data set [2], the system named is EBOV. Conditions: in vivo; cited from earlier work.
Data set [3] deals with Norovirus (human norovirus, GT1 strain). In words: microbe, parasite or virus in culture. The data set is classed as cell-based. The note with it: read-out: EC50.
Data set [4] deals with HG23.
For data set [5], the system named is cytokines and chemokines. Also on record: species or system mice. Conditions: mouse, in vivo.
Data set [6] concerns EBOV. The note with it: in vivo; cited from earlier work. The source holds these as a separate data set.

Where a name gives a salt, the structure may show the parent alone. Bounds are passed on as bounds.

For `CCN(CC)CCCC(C)Nc1ccnc2cc(Cl)ccc12` (stereo not shown) [chloroquine], the survival rate in data set [1] is 90%. The “activity in guinea pig studies” value in data set [2] was “inactive”. Turning to `C[C@@]1(O)[C@H](O)[C@@H](CO)O[C@H]1n1ccc(N)nc1=O` [2’C-methyl cytidine], the EC50 in data set [3] was found to be 6.5 µM. The molecule also displayed a CC50 in data set [4] of more than 300 µM. With `CCN(CC)CCOc1ccc2c(c1)C(=O)c1cc(OCCN(CC)CC)ccc1-2` [Tilorone, tilorone dihydrochloride], in data set [5], the IFN-α/β levels result is listed as “below the LLOD”; the “cytokine/chemokine protein concentrations over vehicle-treated and naïve mice” value is “statistically significant increase in observed protein concentrations”.

B1: mAb114 (antibody, chains of the INN, looked up, V domains shown)
VH: EVQLVESGGGLIQPGGSLRLSCAASGFALRMYDMHWVRQTIDKRLEWVSAVGPSGDTTYADSVKGRFAVSRENAKNSLSLQMNSLTAGDTAIYYCVRSDRGVAGLFDSWGQGILVTVSS
VL: DIQMTQSPSSLSASVGDRITITCRASQAFDNYVAWYQQRPGKVPKLLISAASALHAGVPSRFSGSGSGTHFTLTISSLQPEDVATYYCQNYNSAPLTFGGGTKVEIK
On to B1, for which the “survival rates in clinical trial” value in data set [6] is “higher survival rates than ZMapp and remdesivir”.

The values are drawn from PMC6894882 (PLoS Neglected Tropical Diseases, 2019).
